Reference: US20250129092A1, “COMPOUNDS USEFUL IN MODULATION OF AHR SIGNALLING” (JAGUAHR THERAPEUTICS PTE LTD, priority 2021, published 2025)

Experiments:
AhR [1] = target: T1, AhR (Homo sapiens, UniProt P35869); test: AhR antagonism in human PBMCs - inhibition of IL-22 release; assay type: cell-based; parameters: endogenous in cells; conditions: human PBMCs activated with CD3/CD28 agonist mixture, 72 hrs, IL-22 ELISA; average; read-out: hPBMC Inhibition of CD3/CD28 induced IL-22 release: av. pIC50 (converted)
T1 sequence (P35869 11-848): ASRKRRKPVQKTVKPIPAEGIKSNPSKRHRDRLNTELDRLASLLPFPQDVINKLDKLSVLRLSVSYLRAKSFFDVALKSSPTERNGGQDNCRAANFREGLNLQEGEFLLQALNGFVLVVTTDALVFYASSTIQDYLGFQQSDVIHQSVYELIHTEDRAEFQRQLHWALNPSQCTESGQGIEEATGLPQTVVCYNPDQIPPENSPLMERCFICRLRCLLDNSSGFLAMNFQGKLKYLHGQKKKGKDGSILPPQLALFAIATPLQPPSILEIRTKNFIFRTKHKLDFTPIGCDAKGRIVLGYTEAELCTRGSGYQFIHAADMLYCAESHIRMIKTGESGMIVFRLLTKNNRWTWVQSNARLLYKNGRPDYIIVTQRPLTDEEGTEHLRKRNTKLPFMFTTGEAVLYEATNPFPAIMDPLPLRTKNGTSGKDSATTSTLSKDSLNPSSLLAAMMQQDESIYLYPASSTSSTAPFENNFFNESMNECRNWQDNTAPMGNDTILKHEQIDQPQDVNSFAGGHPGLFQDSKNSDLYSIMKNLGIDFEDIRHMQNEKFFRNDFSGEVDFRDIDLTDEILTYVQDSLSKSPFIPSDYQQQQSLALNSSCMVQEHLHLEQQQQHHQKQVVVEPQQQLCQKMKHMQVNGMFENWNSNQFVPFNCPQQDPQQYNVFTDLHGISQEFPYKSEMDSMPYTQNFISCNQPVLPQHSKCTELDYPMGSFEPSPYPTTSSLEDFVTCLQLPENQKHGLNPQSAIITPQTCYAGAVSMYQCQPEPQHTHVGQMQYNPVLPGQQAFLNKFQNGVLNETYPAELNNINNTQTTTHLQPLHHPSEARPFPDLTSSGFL
Text: In Vitro Assay 3: AhR Antagonism in Human Peripheral Blood Mononuclear Cells (PBMCs)-Inhibition of Interleukin-22 (IL-22) Release.
PBMCs were isolated from human peripheral blood using Lymphoprep™ and diluted to 1×10^6 cells per ml in RPMI media containing […] foetal bovine serum, 1% penicillin-streptomycin and 1% non essential amino acids. PBMCs were subsequently activated with 1p1 per 100,000 cells of a CD3/CD28 agonist mixture (human T Cell TransAct™ (Miltenyi Biotec)) and then plated at 100,000 cells per well in a round bottom 96 well tissue culture plate. One hour after stimulation seven concentrations of each test compound or vehicle (final [DMSO] 0.2%) were added. The plates were then placed in an incubator at 37° C., ≥85% humidity, 5% […] for 72 hrs before the media was removed and stored at −20° C. until cytokine analysis. IL-22 was measured using human IL-22 DuoSet ELISA (R&D systems) according to the manufacturer's instructions.

AhR [2] = target: T1, AhR; test: AhR antagonism in U937 cells (Promega P450-Glo assay); assay type: cell-based; parameters: endogenous in cells; host or cells: U937 cells; conditions: CYP1A1 activity readout (Luciferin-CEE), head names VAF347, average, read-out: U937 Antagonist pIC50-VAF347: av. pIC50 (converted)
Description: In Vitro Assay 1: AhR Antagonism in U937 Cells (Promega P450-Glo™ Assay)
AhR antagonism was assessed in LJ937 cells (myeloid lineage cell line derived from a human histiocytic lymphoma). Ligand binds the AhR in the cytoplasm, and the AhR-ligand complex translocates to the nucleus and forms a heterodimer with AhR nuclear translocator (Arnt). This complex binds the xenobiotic response element (XRE) in the 5′ upstream region of the CYP1A1 promoter, enhancing CYP1A1 expression. CYP1A1 activity is subsequently determined by assessing the conversion of Luciferin-CEE to luciferin, which in turn reacts with luciferase to produce light. The amount of light produced is directly proportional to cytochrome P450 activity. U937 cells in Ultraculture serum free media (Lonza) were plated at 100,000 cells per well in a round bottom 96 well tissue culture plate. […] The plates were then placed in an incubator at 37° C., ≥85% humidity, 5% CO2 for 24 hrs. After aspiration of the supernatant the CYP1A1 substrate Luciferin-CEE ([Final] 83 μM) was added and incubated for 3 hrs before the reaction was stopped by adding luciferin detection reagent and luminescence was read after 20 minutes.

Row | SMILES | IC50 (AhR [1]) [nM] | IC50 (AhR [2]) [nM]
1 | Fc1cncc(-c2nc3c(c(NCCc4c[nH]c5ccccc45)n2)OCCN3)c1 [Example 1, 2-(5-fluoro-3-pyridyl)-N-[2-(1H-indol-3-yl)ethyl]-7,8-dihydro-6H-pyrimido[5,4-b][1,4]oxazin-4-amine] | 1.91 | 0.724
2 | Fc1ccc(-c2nc3c(c(NCCc4c[nH]c5ccccc45)n2)OCCN3)cc1 [Example 2, 2-(4-fluorophenyl)-N-[2-(1H-indol-3-yl)ethyl]-7,8-dihydro-6H-pyrimido[5,4-b][1,4]oxazin-4-amine] | 56.2 | 25.1
3 | Fc1cc(F)cc(-c2nc3c(c(NCCc4c[nH]c5ccccc45)n2)OCCN3)c1 [Example 3, 2-(3,5-difluorophenyl)-N-[2-(1H-indol-3-yl)ethyl]-7,8-dihydro-6H-pyrimido[5,4-b][1,4]oxazin-4-amine] | 3.98 | 3.55
4 | Fc1cncc(-c2nc3c(c(N[C@@H]4CCc5[nH]c6ccccc6c5C4)n2)OCCN3)c1 [Example 4, 2-(5-fluoro-3-pyridyl)-N-[(3R)-2,3,4,9-tetrahydro-1H-carbazol-3-yl]-7,8-dihydro-6H-pyrimido[5,4-b][1,4]oxazin-4-amine] | 83.2 | 16.2
5 | CC1COc2c(NCCc3c[nH]c4ccccc34)nc(-c3cncc(F)c3)nc2N1 (stereo not drawn) [Example 5, 2-(5-fluoro-3-pyridyl)-N-[2-(1H-indol-3-yl)ethyl]-7-methyl-7,8-dihydro-6H-pyrimido[5,4-b][1,4]oxazin-4-amine] | 0.955 | 1.86
6 | CC(C)N1CCOc2c(NCCc3c[nH]c4ccccc34)nc(-c3cncc(F)c3)nc21 [Example 6, 2-(5-fluoro-3-pyridyl)-N-[2-(1H-indol-3-yl)ethyl]-8-isopropyl-6,7-dihydropyrimido[5,4-b][1,4]oxazin-4-amine] | 1.35 | 7.76
7 | Cc1ncc(-c2nc3c(c(NCCc4c[nH]c5ccccc45)n2)OCCN3)s1 [Example 7, N-[2-(1H-indol-3-yl)ethyl]-2-(2-methylthiazol-5-yl)-7,8-dihydro-6H-pyrimido[5,4-b][1,4]oxazin-4-amine] | 9.55 | 9.12
8 | C[C@H]1COc2c(NCCc3c[nH]c4ccccc34)nc(-c3cncc(F)c3)nc2N1 [Example 8, (7S)-2-(5-fluoro-3-pyridyl)-N-[2-(1H-indol-3-yl)ethyl]-7-methyl-7,8-dihydro-6H-pyrimido[5,4-b][1,4]oxazin-4-amine] | 1.05 | 1.12
9 | C[C@@H]1COc2c(NCCc3c[nH]c4ccccc34)nc(-c3cncc(F)c3)nc2N1 [Example 9, (7R)-2-(5-fluoro-3-pyridyl)-N-[2-(1H-indol-3-yl)ethyl]-7-methyl-7,8-dihydro-6H-pyrimido[5,4-b][1,4]oxazin-4-amine] | 0.661 | 0.513
10 | Cc1ncsc1-c1nc2c(c(NCCc3c[nH]c4ccccc34)n1)OCCN2 [Example 10, N-[2-(1H-indol-3-yl)ethyl]-2-(4-methylthiazol-5-yl)-7,8-dihydro-6H-pyrimido[5,4-b][1,4]oxazin-4-amine] | 8.13 | 4.57
11 | Cc1ncc(-c2nc3c(c(N(CCO)CCc4c[nH]c5ccccc45)n2)OCCN3)s1 [Example 11, 2-[2-(1H-indol-3-yl)ethyl-[2-(2-methylthiazol-5-yl)-7,8-dihydro-6H-pyrimido[5,4-b][1,4]oxazin-4-yl]amino]ethanol] | 525 | 91.2
12 | CCc1nc(C)c(-c2nc3c(c(NCCc4c[nH]c5ccccc45)n2)OCCN3)s1 [Example 12, 2-(2-ethyl-4-methyl-thiazol-5-yl)-N-[2-(1H-indol-3-yl)ethyl]-7,8-dihydro-6H-pyrimido[5,4-b][1,4]oxazin-4-amine] | 141 | 89.1

Other lines, results leading:

Row | IC50 (AhR [1]) [nM] | IC50 (AhR [2]) [nM] | SMILES
13 | 89.1 | 66.1 | Cc1ncc(-c2nc3c(c(N[C@@H]4CCc5[nH]c6ccccc6c5C4)n2)OCC(CN(C)C)N3)s1 (mixture of isomers) [Example 38, 7-[(dimethylamino)methyl]-2-(2-methylthiazol-5-yl)-N-[(3R)-2,3,4,9-tetrahydro-1H-carbazol-3-yl]-7,8-dihydro-6H-pyrimido[5,4-b][1,4]oxazin-4-amine]
14 | 1260 | 339 | Cc1ncc(-c2nc3c(c(N[C@@H]4Cc5cccc6[nH]cc(c56)C4)n2)OCCN3)s1 (single isomer, unassigned) [Example 61]
15 | 132 | 50.1 | Cc1ncc(-c2nc3c(c(N[C@H]4Cc5cccc6[nH]cc(c56)C4)n2)OCCN3)s1 (single isomer, unassigned) [Example 62]
16 | > 1780 | 229 | c1ccc2c3c([nH]c2c1)CC[C@@H](Nc1nc(-c2nccs2)nc2c1OCCN2)C3 [Example 13, N-[(3R)-2,3,4,9-tetrahydro-1H-carbazol-3-yl]-2-thiazol-2-yl-7,8-dihydro-6H-pyrimido[5,4-b][1,4]oxazin-4-amine]
17 | > 2000 | – | Cn1cc(-c2nc3c(c(NCCc4c[nH]c5ccccc45)n2)OCCN3)nn1 [Example 55, N-[2-(1H-indol-3-yl)ethyl]-2-(1-methyltriazol-4-yl)-7,8-dihydro-6H-pyrimido[5,4-b][1,4]oxazin-4-amine]
18 | – | 347 | Cn1cc(-c2nc3c(c(NCCc4c[nH]c5ccccc45)n2)OCCN3)ccc1=O [Example 58, 5-[4-[2-(1H-indol-3-yl)ethylamino]-7,8-dihydro-6H-pyrimido[5,4-b][1,4]oxazin-2-yl]-1-methyl-pyridin-2-one]
19 | – | > 813 | COc1ncc(F)cc1-c1nc2c(c(N[C@@H]3CCc4[nH]c5ccccc5c4C3)n1)OCCN2 [Example 65, 2-(5-fluoro-2-methoxy-3-pyridyl)-N-[(3R)-2,3,4,9-tetrahydro-1H-carbazol-3-yl]-7,8-dihydro-6H-pyrimido[5,4-b][1,4]oxazin-4-amine]
20 | – | 66.1 | COc1ncc(F)cc1-c1nc2c(c(NCCc3c[nH]c4ccccc34)n1)OCCN2 [Example 67, 2-(5-fluoro-2-methoxy-3-pyridyl)-N-[2-(1H-indol-3-yl)ethyl]-7,8-dihydro-6H-pyrimido[5,4-b][1,4]oxazin-4-amine]
21 | – | 33.1 | Cc1c[nH]c(=O)c(-c2nc3c(c(NCCc4c[nH]c5ccccc45)n2)OCCN3)c1 [Example 68, 3-[4-[2-(1H-indol-3-yl)ethylamino]-7,8-dihydro-6H-pyrimido[5,4-b][1,4]oxazin-2-yl]-5-methyl-pyridin-2-ol]
22 | – | 81.3 | O=c1[nH]cc(C(F)(F)F)cc1-c1nc2c(c(NCCc3c[nH]c4ccccc34)n1)OCCN2 [Example 69, 3-(4-((2-(1H-indol-3-yl)ethyl)amino)-7,8-dihydro-6H-pyrimido[5,4-b][1,4]oxazin-2-yl)-5-(trifluoromethyl)pyridin-2 (1H)-one]
23 | – | 14.8 | O=c1[nH]cc(Cl)cc1-c1nc2c(c(NCCc3c[nH]c4ccccc34)n1)OCCN2 [Example 72, 3-(4-((2-(1H-indol-3-yl)ethyl)amino)-7,8-dihydro-6H-pyrimido[5,4-b][1,4]oxazin-2-yl)-5-chloropyridin-2-ol]
